Data taken from patent US10231907B2, “Compositions for improving the health and appearance of skin” (Algenist Holdings, Inc., priority 2006, dated 2019).

Legend:
human PMN leukocytes = test: PMN migration (chemotaxis chamber, FMLP); type: cell-based; details: 2 ug/ml, mean ± SD
Description: Microalgal polysaccharide materials were tested for their ability to influence the migration of polymorphonucelar (PMN) leukocytes in response to chemotractant substances. Leukocyte migration is essential for leukocyte accumulation at sites of inflammation. During the inflammatory response, leukocytes migrate towards the source of a chemotractant substance in a process called chemotaxis. In vitro methods to study chemotaxis often use a membrane based approach, where a chemoattractant is placed on one side of a membrane and PMN leukocytes are placed on the other. Chemotaxis is then measured by quantifying the number of leukocytes which then migrate through the filter towards the chemotractant substance.
For this study, human PMN leukocytes were isolated via density centrifugation from freshly drawn blood. The PMN cells were loaded with a Calcein AM, a fluorescent dye. […] The chemotaxis chamber was be incubated and at the end of the incubation period the fluorescence of the bottom wells was read and used as an index of PMN migration. […]
Heparinized whole blood (20-30 ml) was collected from a healthy human donor, layered over a density gradient (Histopaque 1077 and Histopaque 1119) and centrifuged at 400 g for 30 min. […] After the incubation, the PMN cells were washed twice with PBS, counted and resuspended in RPMI-FCS at 1-5×10^6 cells/ml. […]

elastase = test: Anti-elastase assay (fibroblast lysate, STANA substrate); type: biochemical, human; details: 100 μM
Description: Human dermal fibroblasts were cultured and used as a source of the elastase enzyme. This enzyme was be partially purified from the fibroblasts by lysing the cells in an elastase buffer and retaining the soluble portion of the lysate. Portions of this fibroblast lysate were then be incubated with test materials a synthetic elastase substrate, Suc-(Ala3)-p-Nitroaniline (STANA). Elastase acts upon this substrate to release p-nitroaniline, which is detected with a spectrophotometer by measuring the absorbance at a wavelength of 405 nm. An inhibition of the elastase enzyme is identified by a decrease in the amount of released p-nitroaniline when compared to uninhibited enzyme.
Test material BM was supplied as a powder. 100 mg of BM was combined with either 5 ml of ethanol or 5 ml of ultrapure water in 15 ml centrifuge tubes. […]
After measuring the protein concentration of the lysate, a small sample was obtained and the elastase activity of the lysate was determined at 100%, 50% and 25% concentrations using 2× elastase buffer to make the dilutions. […] After the incubation the well plate was read at 405 nm using a microplate reader. The mean absorbance for each concentration of the lysate was plotted versus its respective concentration. […]

Row | SMILES | Percent of Maximal Migration (human PMN leukocytes) [%] | Percent Inhibition (elastase) [%]
1 | C[C@@H]1[C@H](O)[C@@H](C)/C=C/C=C/C=C/C=C/C=C/C=C/C=C/[C@H](O[C@@H]2O[C@H](C)[C@@H](O)[C@H](N)[C@@H]2O)C[C@@H]2O[C@](O)(C[C@@H](O)C[C@@H](O)[C@H](O)CC[C@@H](O)C[C@@H](O)CC(=O)O[C@H]1C)C[C@H](O)[C@H]2C(=O)O [Amphotericin B] | 9.4 ± 0.6 | –
2 | CC(C)C[C@H](NP(=O)(O)O[C@@H]1O[C@@H](C)[C@H](O)[C@@H](O)[C@H]1O)C(=O)N[C@@H](Cc1c[nH]c2ccccc12)C(=O)O [Phosphoramidon] | – | 94
